Assay [1] relates to Mmp9. The experiment in a line: Mmp9 expression by qPCR in mouse peritoneal macrophages cultured on fibronectin. The following applies: wild type and Arhgef1-deficient macrophages on fibronectin; 40 nM S1P, 10 μM LPA, 6 μM PTXA2; 24 h. In kind it is cell-based. The method, then: (§1) FIG. 4. TP signaling is required for MMP9 production in vitro and in vivo. A) Macrophage Mmp9 expression after culture on fibronectin for 24 hrs in media/vehicle (−), 40 nM S1P, 10 μM LPA, 10 nM U-46619 (TP agonist) or 6 μM PTXA2 (TP antagonist). Data represent normalized mean±SE. B) Arhgef1−/− mice (n=16) were exposed to aerosolized PBS (n=16), 220 μM PTXA2 (n=6) or 190 μM U-46619 (n=10) for 20 minutes and BAL harvested 1 day later and MMP activity measured.
FIG. 12. Thromboxane receptor signaling is necessary for fibronectin-induced MMP9 production by macrophages and is attenuated by Arhgef1. A, representative gelatin zymograms of conditioned media from macrophages cultured on plastic (ctl) or FN and treated with 1.56 or 6.25 μM of the thromboxane receptor antagonist PTA2. Wild type (+/+) and Arhgef1^−/− (−/−) samples from separate zymograms are shown. B, quantitation of MMP9 activity as determined by densitometric analysis of zymograms in A. The results are representative of two independent experiments. C, representative zymograms from conditioned media from macrophages cultured on plastic or fibronectin and treated with 28 μM of the thromboxane receptor antagonist L-655,240. D, quantitation of MMP9 activity as determined by densitometric analysis of zymograms in C. The results are compiled from two independent experiments with n=4 for both wild type (open bars) and Arhgef1^−/− (black bars) samples. The data represent the means±S.E. *, p<0.05 Student's two-tailed t test compared with conditioned media from cells cultured on plastic. #, p<0.05 Student's two-tailed t test comparing conditioned media from wild type cells to Arhgef1^−/− cells cultured under identical conditions. $, p<0.05 Student's two-tailed t test compared with conditioned media from cells cultured on fibronectin. E, MMP2 activity was quantitated in conditioned media as previously described for MMP9. The results are compiled from four independent experiments with n=10 for wild type (open bars) and Arhgef1^−/− (black bars) samples cultured on either plastic or fibronectin. For cells treated with 20 mM aspirin, n=6 for wild type (open bars) and Arhgef1^−/− (black bars) samples. For cells treated with 28 μM L-655,240, n=4 for wild type (open bars) and Arhgef1^−/− (black bars) samples. The data represent the means±S.E. F, MMP9 activity was quantitated as previously described and normalized to a percentage of fibronectin response for each genotype. The cells were either untreated or treated with 0.5% Me2SO or 28 μM L-655,240. The results are compiled from two independent experiments with n=3 for all conditions and genotypes. The data represent the means±S.E. *, p<0.05 Student's two-tailed t test compared with conditioned media from cells cultured on fibronectin. G, relative Mmp9 expression was measured by qPCR in macrophages cultured on fibronectin in the presence of the thromboxane receptor agonist (U-46619, 10 nM), S1P (40 nM), or LPA (10 μM). […] Wild type (open bars, n=12, 6, 3, and 3 for fibronectin, +U-46619, +S1P, and +LPA, respectively) and Arhgef1^−/− (black bars, n=14, 6, 3, and 2, respectively) from at least two independent experiments. The data represent the means±S.E. *, p<0.05 Student's two-tailed t test compared with conditioned media from cells cultured on fibronectin, #, p<0.05 Student's two-tailed t test comparing conditioned media from wild type cells to Arhgef1^−/− cells cultured under identical conditions. […]

The test system of assay [2] is Mmp9. The experiment in a line: MMP9 activity in BAL of Arhgef1−/− mice after aerosol exposure. In kind it is in vivo, mouse. Particulars: inhalation of aerosol 20 min (220 μM PTXA2, 190 μM U-46619), BAL 24 hours later. The method, then: as §1

`CCCCC[C@@H](O)/C=C/[C@H]1C[C@H]2C[C@@H]([C@@H]1C/C=C\CCCC(=O)O)C2(C)C` (relative stereo) [PTXA2, (18-(1alpha,2beta(Z),3alpha(1E,3S*),5alpha))-7-(3-(3-Hydroxy-1-octenyl)-6,6-dimethylbicyclo(3.1.1)hept-2-yl)-5-heptenoic acid]: in assay [1], the Mmp9 expression result is reported as “ablated Mmp9 expression”. In addition, in assay [2], the “MMP9 activity in BAL” value is on record as “considerably diminished MMP9 activity”.

For the origin of these results see patent publication US9820951B2, “Pulmonary disease treatment and diagnosis based on Arhgef1” (NATIONAL JEWISH HEALTH, A NON-PROFIT ORGANIZATION, priority 2011, dated 2017).
